ChEMBL document CHEMBL4177609, “Identification of pyrrolo[2,3-d]pyrimidines as potent HCK and FLT3-ITD dual inhibitors” (Bioorg Med Chem Lett, 2017)

Legend:
[1] = molecular target: Receptor-type tyrosine-protein kinase FLT3 (Homo sapiens, UniProt P36888, ITD); assay: Inhibition of recombinant human C-terminal FLT3 ITD mutant (571 to 993 residues) after 90 mins by mobility shift assay
[2] = tested on: MV4-11; assay: Growth inhibition of human MV4-11 cells after 3 days by Alamar blue assay; assay type: functional; details: MV4-11, 72 h
[3] = molecular target: Tyrosine-protein kinase HCK (Homo sapiens, UniProt P08631)
Sequence of Tyrosine-protein kinase HCK (P08631 whole entry): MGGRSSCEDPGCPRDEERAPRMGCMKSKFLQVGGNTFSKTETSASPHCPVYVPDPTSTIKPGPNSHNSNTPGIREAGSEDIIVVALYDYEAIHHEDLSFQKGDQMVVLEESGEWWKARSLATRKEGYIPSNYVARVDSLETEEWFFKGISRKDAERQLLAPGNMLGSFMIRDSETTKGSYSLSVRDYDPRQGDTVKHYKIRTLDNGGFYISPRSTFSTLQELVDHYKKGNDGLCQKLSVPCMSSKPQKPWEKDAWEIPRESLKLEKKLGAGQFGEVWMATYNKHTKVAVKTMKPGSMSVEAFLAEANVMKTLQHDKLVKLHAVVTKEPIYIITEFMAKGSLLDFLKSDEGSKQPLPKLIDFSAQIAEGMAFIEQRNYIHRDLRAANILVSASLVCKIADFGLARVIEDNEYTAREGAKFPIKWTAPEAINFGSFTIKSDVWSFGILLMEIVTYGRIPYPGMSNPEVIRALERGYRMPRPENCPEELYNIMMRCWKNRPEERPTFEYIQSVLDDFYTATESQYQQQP
Description: Inhibition of recombinant human HCK SH3-SH2-KD (75 to 526 residues) after 20 mins by mobility shift assay

Sequence of Receptor-type tyrosine-protein kinase FLT3 (P36888 whole entry, looked up, stated change not applied, the tested form may be a part): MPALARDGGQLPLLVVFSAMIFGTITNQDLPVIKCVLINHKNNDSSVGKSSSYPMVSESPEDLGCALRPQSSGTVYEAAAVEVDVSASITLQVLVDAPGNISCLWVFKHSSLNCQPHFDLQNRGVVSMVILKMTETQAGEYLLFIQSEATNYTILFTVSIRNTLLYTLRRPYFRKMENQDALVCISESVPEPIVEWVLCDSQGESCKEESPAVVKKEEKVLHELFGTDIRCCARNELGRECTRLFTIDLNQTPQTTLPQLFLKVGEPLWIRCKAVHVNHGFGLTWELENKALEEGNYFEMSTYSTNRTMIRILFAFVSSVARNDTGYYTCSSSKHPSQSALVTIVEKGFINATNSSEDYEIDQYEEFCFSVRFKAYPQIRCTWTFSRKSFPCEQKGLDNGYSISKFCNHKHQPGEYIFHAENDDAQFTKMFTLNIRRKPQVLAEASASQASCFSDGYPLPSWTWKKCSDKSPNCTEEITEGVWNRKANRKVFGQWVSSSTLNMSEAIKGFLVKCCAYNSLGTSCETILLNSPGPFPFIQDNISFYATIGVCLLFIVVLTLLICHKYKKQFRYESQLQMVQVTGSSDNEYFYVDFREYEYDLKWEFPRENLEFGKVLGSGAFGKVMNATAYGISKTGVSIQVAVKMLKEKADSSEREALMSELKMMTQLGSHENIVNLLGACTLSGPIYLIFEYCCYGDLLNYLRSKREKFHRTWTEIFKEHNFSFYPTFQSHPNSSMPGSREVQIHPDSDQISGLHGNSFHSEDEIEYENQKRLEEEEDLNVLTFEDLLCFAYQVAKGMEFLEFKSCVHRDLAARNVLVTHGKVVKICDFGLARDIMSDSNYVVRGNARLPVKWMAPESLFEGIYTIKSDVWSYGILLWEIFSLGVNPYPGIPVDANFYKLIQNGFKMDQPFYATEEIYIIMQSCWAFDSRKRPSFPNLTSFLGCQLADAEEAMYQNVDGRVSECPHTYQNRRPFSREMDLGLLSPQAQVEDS

| Compound | IC50 [1] | GI50 [2] | IC50 [3] |
| --- | --- | --- | --- |
| Nc1ncnc2c1c(-c1ccc(Oc3ccccc3)cc1)cn2[C@H]1CC[C@H](N[C@H]2CCOC2=O)CC1 | 25 nM | – | 28 nM |
| Nc1ncnc2c1c(-c1ccc(Oc3ccccc3)cc1)cn2[C@H]1CC[C@@H](N[C@H](CO)C(=O)O)CC1 | 12 nM | – | 23 nM |
| Nc1ncnc2c1c(-c1ccc(Oc3ccccc3)cc1)cn2[C@H]1CC[C@@H](N[C@@H](CO)C(=O)O)CC1 | 13 nM | – | 40 nM |
| Nc1ncnc2c1c(-c1ccc(Oc3ccccc3)cc1)cn2[C@H]1CC[C@@H](N[C@@H](Cc2ccccc2)C(=O)O)CC1 | 3.1 nM | – | 74 nM |
| Nc1ncnc2c1c(-c1ccc(Oc3ccccc3)cc1)cn2[C@H]1CC[C@H](N[C@H](Cc2ccccc2)C(=O)O)CC1 | 27 nM | – | 24 nM |
| C[C@@H](N[C@H]1CC[C@@H](n2cc(-c3ccc(Oc4ccccc4)cc3)c3c(N)ncnc32)CC1)C(=O)O | 23 nM | – | 36 nM |
| Nc1ncnc2c1c(-c1ccc(Oc3ccccc3)cc1)cn2[C@H]1CC[C@H](N2CCC[C@H]2C(=O)O)CC1 | 26 nM | – | 52 nM |
| CC(C)CCN[C@H]1CC[C@H](n2cc(-c3ccc(Oc4ccccc4)cc3)c3c(N)ncnc32)CC1 | 56 nM | – | 226 nM |
| CC(C)C[C@H](N[C@H]1CC[C@@H](n2cc(-c3ccc(Oc4ccccc4)cc3)c3c(N)ncnc32)CC1)C(=O)O | 23 nM | – | 105 nM |
| CC(C)C[C@@H](N[C@H]1CC[C@H](n2cc(-c3ccc(Oc4ccccc4)cc3)c3c(N)ncnc32)CC1)C(=O)O | 53 nM | – | 27 nM |
| C[C@H](N[C@H]1CC[C@@H](n2cc(-c3ccc(Oc4ccccc4)cc3)c3c(N)ncnc32)CC1)C(=O)O | 20 nM | – | 73 nM |
| Nc1ncnc2c1c(-c1ccc(Oc3ccccc3)cc1)cn2[C@H]1CC[C@@H](N[C@H](Cc2ccccc2)C(=O)O)CC1 | 2.6 nM | 26 nM | 18 nM |
| Nc1ncnc2c1c(-c1ccc(Oc3ccccc3)cc1)cn2[C@H]1CC[C@H](N2CCC[C@@H]2C(=O)O)CC1 | 126 nM | – | 200 nM |
| Nc1ncnc2c1c(-c1ccc(Oc3ccccc3)cc1)cn2[C@H]1CC[C@@H](N2CCC[C@H]2C(=O)O)CC1 | 20 nM | – | 79 nM |
| CC(C)C[C@@H](N[C@H]1CC[C@@H](n2cc(-c3ccc(Oc4ccccc4)cc3)c3c(N)ncnc32)CC1)C(=O)O | 35 nM | – | 137 nM |
| C[C@@H](N[C@H]1CC[C@H](n2cc(-c3ccc(Oc4ccccc4)cc3)c3c(N)ncnc32)CC1)C(=O)O | 39 nM | – | 36 nM |
| CC(C)CCN[C@H]1CC[C@@H](n2cc(-c3ccc(Oc4ccccc4)cc3)c3c(N)ncnc32)CC1 | 44 nM | – | 119 nM |
| Nc1ncnc2c1c(-c1ccc(Oc3ccccc3)cc1)cn2[C@H]1CC[C@@H](N[C@@H](Cc2ccc(O)cc2)C(=O)O)CC1 | 5 nM | – | 39 nM |
| Nc1ncnc2c1c(-c1ccc(Oc3ccccc3)cc1)cn2[C@H]1CC[C@@H](N2CCC[C@@H]2C(=O)O)CC1 | 16 nM | – | 65 nM |

Compounds with a lower IC50 [3], results first:

| IC50 [1] | GI50 [2] | IC50 [3] | Compound |
| --- | --- | --- | --- |
| 33 nM | – | 15 nM | Nc1ncnc2c1c(-c1ccc(Oc3ccccc3)cc1)cn2[C@H]1CC[C@H](NCCC(=O)O)CC1 |
| 11 nM | – | 15 nM | Nc1ncnc2c1c(-c1ccc(Oc3ccccc3)cc1)cn2[C@H]1CC[C@H](N[C@H](Cc2ccc(O)cc2)C(=O)O)CC1 |
| 5 nM | 18 nM | 13 nM | Nc1ncnc2c1c(-c1ccc(Oc3ccccc3)cc1)cn2[C@H]1CC[C@@H](N[C@H](Cc2ccc(O)cc2)C(=O)O)CC1 |
| 32 nM | – | 12 nM | Nc1ncnc2c1c(-c1ccc(Oc3ccccc3)cc1)cn2[C@H]1CC[C@@H](NCC(=O)O)CC1 |
| 24 nM | – | 7.5 nM | Nc1ncnc2c1c(-c1ccc(Oc3ccccc3)cc1)cn2[C@H]1CC[C@H](N[C@@H](Cc2ccccc2)C(=O)O)CC1 |
| 28 nM | – | 7.4 nM | Nc1ncnc2c1c(-c1ccc(Oc3ccccc3)cc1)cn2[C@H]1CC[C@H](N[C@@H](Cc2ccc(O)cc2)C(=O)O)CC1 |
| 39 nM | – | 6.9 nM | C[C@H](N[C@H]1CC[C@H](n2cc(-c3ccc(Oc4ccccc4)cc3)c3c(N)ncnc32)CC1)C(=O)O |
| 17 nM | – | 6.3 nM | Nc1ncnc2c1c(-c1ccc(Oc3ccccc3)cc1)cn2[C@H]1CC[C@H](N[C@H](CO)C(=O)O)CC1 |
| 27 nM | 29 nM | 5.4 nM | Nc1ncnc2c1c(-c1ccc(Oc3ccccc3)cc1)cn2[C@H]1CC[C@@H](N[C@H]2CCOC2=O)CC1 |
| 14 nM | 21 nM | 4.4 nM | CC(C)C[C@H](N[C@H]1CC[C@H](n2cc(-c3ccc(Oc4ccccc4)cc3)c3c(N)ncnc32)CC1)C(=O)O |
| 28 nM | 98 nM | 3.7 nM | Nc1ncnc2c1c(-c1ccc(Oc3ccccc3)cc1)cn2[C@H]1CC[C@H](NCC(=O)O)CC1 |
| 18 nM | > 100 nM | 1.8 nM | Nc1ncnc2c1c(-c1ccc(Oc3ccccc3)cc1)cn2[C@H]1CC[C@H](N[C@@H](CO)C(=O)O)CC1 |
| – | 40 nM | 0.4 nM | CN1CCN([C@H]2CC[C@H](n3cc(-c4ccc(Oc5ccccc5)cc4)c4c(N)ncnc43)CC2)CC1 |
